# Measured values reported in patent publication US4469868A, “Alkylimidazo[1,2-c]pyrazolo[3,4-e]pyrimidines” (Warner-Lambert Company, priority 1982, dated 1984).
# Where a name gives a salt, the structure may show the parent alone. Read-outs that look alike come from different tables or passages of the source.
# Columns and labels:
# [1] = conditioned avoidance-escape procedure (modified pole-climb avoidance); format: in vivo; settings: oral, male Wistar rat
# Protocol: In order to further assess their usefulness, representative compounds of the invention were tested in a conditioned avoidance-escape procedure. In this test*, an animal (male Wistar rat) is conditioned to respond to a stimulus in order to avoid an unpleasant electrical shock. Should the animals fail to give the response in order to avoid the shock, an escape route is available so that it can escape the shock once it is delivered. Preferably, compounds will show variations between the dose that will supress conditioned avoidance and the dose that will suppress the escape response.
# *Modification of the pole-climb avoidance paradigm described in Ann. NY Acad. Sci., 740, (1957).
# [2] = Mouse Activity and Screen Test Procedure (MAST): inhibition of spontaneous locomotion and inverted screen test; format: in vivo, Swiss-Webster male mice; settings: po, Compound administered orally, mice, read-out: Dose at which an overall dose rating of A was obtained
# [3] = as above; format: in vivo, Swiss-Webster male mice; settings: ip, 1 h, intraperitoneal, one hour prior to testing, mice, locomotion over 60 minutes, read-out: Dose at which an overall dose rating of A was obtained
# Excerpt: The compound of the invention are new chemical substances which are useful as pharmaceutical agents for the treatment of psychoses. The antipsychotic activity of representative compounds of the invention was established by the Mouse Activity and Screen Test Procedure (MAST) described below.
# ANIMALS: Nine unfasted Swiss-Webster male mice (Buckberg Labs) weighing 20-30 g are equally divided into three groups for each drug dose to be tested. That is, data for each dose level was generated by three separate groups of three mice each.
# DRUGS: A minimum of three dose levels (10, 30, and 100 mg/kg) are tested for each drug. Treatments are administered intraperitoneally one hour prior to testing. All dosages are calculated as parent compound and given in volumes of […]. Compounds are dissolved or suspended in 0.2% Methocel. Control animals are injected with Methocel.
# TESTING: A two part testing procedure is started one hour postinjection. First, the screen test is performed (see Pharmac. Biochem. Behav. 6, 351-353, 1977). Briefly this test consists of placing mice on individual wire screens which are then rotated 180 degrees at the start of a 60-second observation period. The number of mice falling off the inverted screen is recorded.
# Immediately following the screen test, the final phase of testing is initiated by placing each group of three mice in one actophotometer (Life Sciences, 22, 1067-1076, 1978). The actophotometer consists of a cylindrical chamber whose center is occupied by another cylinder which contains the illumination for six photocells located on the perimeter of the chamber. Six light-beam interruptions equal one count. Locomotor activity is recorded by computer at 10-minute intervals for 60 minutes.
# DATA: The data obtained from the screen test are expressed as percent of mice falling off the screen. Data derived from locomotor activity of drug treated mice are compared to the activity of vehicle treated animals and are expressed as percent inhibition of spontaneous locomotion. All percentages reported for inhibition of locomotion are based upon data accumulated for one hour. Both phases of testing are graded: A=60-100%; C=31-59%; and N=0-30%. An overall dose rating is obtained by the following criteria: […]
# Utilizing this procedure, an overall dose rating of A was obtained for the noted compound at the indicated dose as reported in Table 1.
# [4] = suppression of conditioned avoidance, read-out: Oral ED50 Avoidance
# [5] = suppression of escape response, read-out: Oral ED50 Escape
Compound,"ED50 [1, 4]","ED50 [1, 5]",minimal effective dose [2],minimal effective dose [3]
"CC1=Nc2c(C)nn(C)c2C2=NCC(C)(C)N12 [R1=CH3, R2=CH3, R3=CH3, R4=(CH3)2, R5=H2, 7,8-Dihydro-1,3,5,7,7-pentamethyl-1H-imidazo[1,2-c]pyrazolo[3,4-e]pyrimidine]",32 mg/kg,80 mg/kg,–,–
"CCC1=Nc2c(C)nn(C)c2C2=NCCN12 [R1=CH3, R2=CH3, R3=C2H5, R4=H, R5=H, 5-Ethyl-7,8-dihydro-1,3-dimethyl-1H-imidazo[1,2-c]pyrazolo[3,4-e]pyrimidine]",–,–,90 mg/kg,–
"CCC1CN2C(C)=Nc3c(C)nn(C)c3C2=N1 (centres unmarked) [R1=CH3, R2=CH3, R3=CH3, R4=H, R5=C2H5, 8-ethyl-7,8-dihydro-1,3,5-trimethyl-1H-imidazo[1,2-c]pyrazolo[3,4-e]pyrimidine]",7.5 mg/kg,32 mg/kg,–,–
"CC1=Nc2c(C)nn(C)c2C2=N[C@@H](C(C)C)CN12 [R1=CH3, R2=CH3, R3=CH3, R4=H, R5=i-C3H7 (S-isomer), 7,8-Dihydro-8-isopropyl-1,3,5-trimethyl-1H-imidazo[1,2-c]pyrazolo[3,4-e]pyrimidine dihydrochloride (S-form)]",20 mg/kg,70 mg/kg,–,100 mg/kg
"Cc1nn(C)c2c1N=CN1CC(C)N=C21 (centres unmarked) [R1=CH3, R2=CH3, R3=H, R4=H, R5=CH3, 7,8-Dihydro-1,3,8-trimethyl-1H-imidazo[1,2-c]pyrazolo[3,4-e]pyrimidine]",18 mg/kg,56 mg/kg,–,100 mg/kg
"CCC1=Nc2c(C)nn(CC)c2C2=NC(C)CN12 (centres unmarked) [R1=C2H5, R2=CH3, R3=C2H5, R4=H, R5=CH3, 1,5-Diethyl-7,8-dihydro-3,8-dimethyl-1H-imidazo[1,2-c]pyrazolo[3,4-e]pyrimidine]",9 mg/kg,50 mg/kg,–,100 mg/kg
"Cc1nn(C)c2c1N=C(C1CC1)N1CC(C)N=C21 (centres unmarked) [5-Cyclopropyl-7,8-dihydro-1,3,8-trimethyl-1H-imidazo[1,2-c]pyrazolo[3,4-e]pyrimidine]",11.5 mg/kg,110 mg/kg,–,100 mg/kg
"CCn1nc(C)c2c1C1=NCCN1C(C)=N2 [R1=C2H5, R2=CH3, R3=CH3, R4=H, R5=H, 1-Ethyl-7,8-dihydro-3,5-dimethyl-1H-imidazo[1,2-c]pyrazolo[3,4-e]pyrimidine]",10 mg/kg,28 mg/kg,–,–
"CCC1=Nc2c(C)nn(C)c2C2=NCC(C)N12 (centres unmarked) [R1=CH3, R2=CH3, R3=C2H5, R4=CH3, R5=H, 7,8-Dihydro-5-ethyl-1,3,7-trimethyl-1H-imidazo[1,2-c]pyrazolo[3,4-e]pyrimidine]",35 mg/kg,52 mg/kg,–,100 mg/kg
"CCC1=Nc2c(C)nn(C)c2C2=NC(C)CN12 (centres unmarked) [R1=CH3, R2=CH3, R3=C2H5, R4=H, R5=CH3, 7,8-Dihydro-5-ethyl-1,3,8-trimethyl-1H-imidazo[1,2-c]pyrazolo[3,4-e]pyrimidine]",6.4 mg/kg,66 mg/kg,–,–
"Cc1nn(C)c2c1N=CN1CCN=C21 [R1=CH3, R2=CH3, R3=H, R4=H, R5=H, 7,8-Dihydro-1,3-dimethyl-1H-imidazo[1,2-c]pyrazolo [3,4-e]pyrimidine]",18 mg/kg,54 mg/kg,–,100 mg/kg
"CC1=Nc2c(C)nn(C)c2C2=NC(C)CN12 (racemic) [R1=CH3, R2=CH3, R3=CH3, R4=H, R5=CH3 (Racemate), 7,8-dihydro-1,3,5,8-tetramethyl-1H-imidazo[1,2-c]pyrazolo[3,4-e]pyrimidine]",10 mg/kg,32 mg/kg,–,–
"CCc1nc2c(C)nn(C)c2c2nc(C)cn12 [5-Ethyl-1,3,8-trimethyl-1H-imidazo[1,2-c]pyrazolo[3,4-e]pyrimidine]",8 mg/kg,45 mg/kg,–,–
"CCCn1nc(C)c2c1C1=NC(C)CN1C(C)=N2 (centres unmarked) [R1=n-C3H7, R2=CH3, R3=CH3, R4=H, R5=CH3, 7,8-Dihydro-3,5,8-trimethyl-1-n-propyl-1H-imidazo[1,2-c]pyrazolo[3,4-e]pyrimidine]",37 mg/kg,90 mg/kg,–,100 mg/kg
"CC1=Nc2c(C)nn(C)c2C2=N[C@H](C)CN12 [R1=CH3, R2=CH3, R3=CH3, R4=H, R5=CH3 (R-isomer), 7,8-Dihydro-1,3,5-trimethyl-1H-imidazo[1,2-c]-pyrazolo[3,4-e]pyrimidine (R-form)]",< 65 mg/kg,< 65 mg/kg,–,–
"CC1=Nc2c(C)nn(C)c2C2=NC(C)C(C)N12 (centres unmarked) [R1=CH3, R2=CH3, R3=CH3, R4=CH3, R5=CH3, 7,8-dihydro-1,3,5,7,8-pentamethyl-1H-imidazo[1,2-c]pyrazolo[3,4-e]pyrimidine]",20 mg/kg,57 mg/kg,–,100 mg/kg
"CC1=Nc2c(C)nn(C)c2C2=N[C@@H](C)CN12 [R1=CH3, R2=CH3, R3=CH3, R4=H, R5=CH3 (S-isomer), 7,8-Dihydro-1,3,5,8-tetramethyl-1H-imidazo[1,2-c]pyrazolo[3,4-e]pyrimidine (S-form)]",11.5 mg/kg,20 mg/kg,–,100 mg/kg
"CC1=Nc2c(C)nn(C)c2C2=NC(C)(C)CN12 [R1=CH3, R2=CH3, R3=CH3, R4=H2, R5=(CH3)2, 7,8-Dihydro-1,3,5,8,8-pentamethyl-1H-imidazo[1,2-c]pyrazolo[3,4-e]pyrimidine]",18 mg/kg,120 mg/kg,–,–
"CCn1nc(C)c2c1C1=NC(C)CN1C(C)=N2 (centres unmarked) [R1=C2H5, R2=CH3, R3=CH3, R4=H, R5=CH3, 7,8-Dihydro-1-ethyl-3,5,8-trimethyl-1H-imidazo[1,2-c]pyrazolo[3,4-e]pyrimidine]",5 mg/kg,15 mg/kg,–,–
"CC1=Nc2c(C)nn(CC(F)(F)F)c2C2=NC(C)CN12 (centres unmarked) [R1=CF3CH2, R2=CH3, R3=CH3, R4=H, R5=CH3, 7,8-Dihydro-3,5,8-trimethyl-1-(2,2,2-trifluoroethyl)-1H-imidazo[1,2-c]pyrazolo[3,4-e]pyrimidine]",–,–,–,100 mg/kg
